# Numbered stars: 1 amine (or outer) side, 2 acyl side, 3 side chain; on linkers, the order of the positions; unused ones are H or OH. Square brackets hold non-standard residues; d marks the D form. Side chains are listed from the residue outwards. Peptide text beside a SMILES is read from it. * marks the point of attachment. γGlu = O=C(O)[C@H](CCC(=O)[*:2])N[*:1]; 1Nal = N[C@@H](Cc1cccc2ccccc12)C(=O)O; Palmitoyl = CCCCCCCCCCCCCCCC(=O)*; Aib = CC(C)(N)C(=O)O
# Biological target: T1, human GLP-1 R (Homo sapiens, UniProt P43220)
# T1 construct: expressed in transfected cells
# T1 sequence (P43220 24-463): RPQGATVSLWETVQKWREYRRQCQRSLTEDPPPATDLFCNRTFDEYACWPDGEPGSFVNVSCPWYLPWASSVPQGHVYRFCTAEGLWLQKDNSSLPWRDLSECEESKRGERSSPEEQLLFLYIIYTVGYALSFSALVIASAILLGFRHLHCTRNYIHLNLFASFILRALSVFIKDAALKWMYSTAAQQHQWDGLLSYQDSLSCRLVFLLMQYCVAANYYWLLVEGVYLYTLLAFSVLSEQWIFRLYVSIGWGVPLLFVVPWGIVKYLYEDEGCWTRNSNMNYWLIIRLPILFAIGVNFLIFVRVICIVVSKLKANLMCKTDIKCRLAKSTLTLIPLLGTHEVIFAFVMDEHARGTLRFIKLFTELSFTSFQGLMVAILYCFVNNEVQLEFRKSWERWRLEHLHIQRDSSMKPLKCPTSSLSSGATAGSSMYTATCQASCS
# Assay: Human GLP-1 receptor (GLP-1 R) activity assay, cAMP induction (AlphaScreen cAMP kit)
# Assay type: cell-based
# Settings: HEK293 cells expressing the human GLP-1 R, 15 min at 37° C., average values of multiple determinations, read-out: GLP1 R (EC50 in nM)
# Description: Human GIP Receptor (GIP R) and GLP-1 Receptor (GLP-1 R) Activity Assay
# In vitro effects of peptide conjugates of the invention were assessed by measuring the induction of cAMP following stimulation of the respective receptor by GIP, GLP1 or analogues of these, as outlined in the invention, using the AlphaSceen® cAMP kit from Perkin-Elmer according to instructions. Briefly. HEK293 cells expressing the human GIP R or GLP-1 R (stable cell lines generated through transfection of the cDNA for human GIP R or GLP-1 and selection of stable clones) were seeded at 30,000 cells/well in 96-well microtiter plates coated with 0.01% poly-L-lysine, and grown for 1 day in culture in 200 μl growth medium (DMEM, 10% FCS, Penicillin (100 IU/ml), Streptomycin (100 μg/ml)). On the day of analysis, growth medium was removed and the cells were washed once with […] Tyrode's buffer (Tyrode's Salts (9.6 g/1), 10 mM HEPES, pH 7.4). […] The Assay buffer was removed and cells are lysed in 80 μl Lysis buffer (0.1% w/v BSA, 5 mM HEPES, 0.3% v/v Tween-20) per well. From each well 10 μl lysed cells was transferred to a 384-well plate and mixed with 15 μl bead-mix (1 Unit/15 μl anti-cAMP Acceptor Beads, 1 Unit/15 μl Donor Beads, and 1 Unit/15 μl Biotinylated cAMP in Assay Buffer). The plates were mixed and incubated in the dark for an hour at room temperature before measuring using an Envision™ plate reader (Perkin-Elmer).
compound,measurement,value
CC[C@H](C)[C@H](NC(=O)[C@H](CO)NC(=O)[C@H](Cc1ccc(O)cc1)NC(=O)[C@H](CC(=O)O)NC(=O)[C@H](CO)NC(=O)[C@@H](NC(=O)[C@H](Cc1ccccc1)NC(=O)[C@@H](NC(=O)CNC(=O)[C@H](CCC(=O)O)NC(=O)C(C)(C)NC(=O)[C@@H](N)Cc1ccc(O)cc1)[C@@H](C)O)[C@@H](C)O)C(=O)N[C@@H](C)C(=O)N[C@@H](CC(C)C)C(=O)N[C@@H](CCC(=O)O)C(=O)N[C@@H](CCCCN)C(=O)N[C@@H](CCCCN)C(=O)N[C@@H](C)C(=O)N[C@@H](CCC(N)=O)C(=O)N[C@@H](CCCNC(=N)N)C(=O)N[C@@H](C)C(=O)N[C@@H](Cc1ccccc1)C(=O)N[C@H](C(=O)N[C@@H](CC(N)=O)C(=O)N[C@@H](Cc1c[nH]c2ccccc12)C(=O)N[C@@H](CC(C)C)C(=O)N[C@@H](CC(C)C)C(=O)N[C@@H](C)C(=O)NC(C)(C)C(=O)N[C@@H](CCCCN)C(N)=O)C(C)C [Compound 15] (H-Y[Aib]EGTFTSDYSIALEKKAQRAFVNWLLA[Aib]K-NH2),EC50,0.01 nM
CC[C@H](C)[C@H](NC(=O)[C@H](CO)NC(=O)[C@H](Cc1ccc(O)cc1)NC(=O)[C@H](CC(=O)O)NC(=O)[C@H](CO)NC(=O)[C@@H](NC(=O)[C@H](Cc1ccccc1)NC(=O)[C@@H](NC(=O)CNC(=O)[C@H](CCC(=O)O)NC(=O)C(C)(C)NC(=O)[C@@H](N)Cc1ccc(O)cc1)[C@@H](C)O)[C@@H](C)O)C(=O)N[C@@H](Cc1ccc(O)cc1)C(=O)N[C@@H](CC(C)C)C(=O)N[C@@H](CC(=O)O)C(=O)N[C@@H](CO)C(=O)N[C@@H](CCCCN)C(=O)N[C@@H](C)C(=O)N[C@@H](CCCCN)C(=O)N[C@@H](CCCNC(=N)N)C(=O)N[C@@H](C)C(=O)N[C@@H](Cc1ccccc1)C(=O)N[C@H](C(=O)N[C@@H](CC(N)=O)C(=O)N[C@@H](Cc1c[nH]c2ccccc12)C(=O)N[C@@H](CC(C)C)C(=O)N[C@@H](CC(C)C)C(=O)N[C@@H](C)C(=O)NC(C)(C)C(=O)N[C@@H](CCCCN)C(N)=O)C(C)C [Compound 18] (H-Y[Aib]EGTFTSDYSIYLDSKAKRAFVNWLLA[Aib]K-NH2),EC50,0.015 nM
CC[C@H](C)[C@H](NC(=O)[C@H](CO)NC(=O)[C@H](Cc1ccc(O)cc1)NC(=O)[C@H](CC(=O)O)NC(=O)[C@H](CO)NC(=O)[C@@H](NC(=O)[C@H](Cc1ccccc1)NC(=O)[C@@H](NC(=O)CNC(=O)[C@H](CCC(=O)O)NC(=O)C(C)(C)NC(=O)[C@@H](N)Cc1ccc(O)cc1)[C@@H](C)O)[C@@H](C)O)C(=O)N[C@@H](Cc1ccc(O)cc1)C(=O)N[C@@H](CC(C)C)C(=O)N[C@@H](CC(=O)O)C(=O)N[C@@H](CCCCN)C(=O)N[C@@H](CCCCN)C(=O)N[C@@H](C)C(=O)N[C@@H](CCC(N)=O)C(=O)N[C@@H](CCCNC(=N)N)C(=O)N[C@@H](C)C(=O)N[C@@H](Cc1ccccc1)C(=O)N[C@H](C(=O)N[C@@H](CCCCN)C(=O)N[C@@H](Cc1c[nH]c2ccccc12)C(=O)N[C@@H](CC(C)C)C(=O)N[C@@H](CC(C)C)C(=O)N[C@@H](C)C(=O)NC(C)(C)C(=O)N[C@@H](CCCCN)C(N)=O)C(C)C [Compound 20] (H-Y[Aib]EGTFTSDYSIYLDKKAQRAFVKWLLA[Aib]K-NH2),EC50,0.009 nM
CC[C@H](C)[C@H](NC(=O)[C@H](CO)NC(=O)[C@H](Cc1ccc(O)cc1)NC(=O)[C@H](CC(=O)O)NC(=O)[C@H](CO)NC(=O)[C@@H](NC(=O)[C@H](Cc1ccccc1)NC(=O)[C@@H](NC(=O)CNC(=O)[C@H](CCC(=O)O)NC(=O)C(C)(C)NC(=O)[C@@H](N)Cc1ccc(O)cc1)[C@@H](C)O)[C@@H](C)O)C(=O)N[C@@H](Cc1ccc(O)cc1)C(=O)N[C@@H](CC(C)C)C(=O)N[C@@H](CC(=O)O)C(=O)N[C@@H](CCCCN)C(=O)N[C@@H](CCCCN)C(=O)N[C@@H](C)C(=O)N[C@@H](CCC(N)=O)C(=O)N[C@@H](CCCNC(=N)N)C(=O)N[C@@H](C)C(=O)N[C@@H](Cc1ccccc1)C(=O)N[C@H](C(=O)N[C@@H](CC(N)=O)C(=O)N[C@@H](Cc1c[nH]c2ccccc12)C(=O)N[C@@H](CC(C)C)C(=O)N[C@H](C(=O)N[C@@H](C)C(=O)NC(C)(C)C(=O)N[C@@H](CCCCN)C(N)=O)C(C)C)C(C)C [Compound 21] (H-Y[Aib]EGTFTSDYSIYLDKKAQRAFVNWLVA[Aib]K-NH2),EC50,0.009 nM
CC[C@H](C)[C@H](NC(=O)[C@H](CO)NC(=O)[C@H](Cc1ccc(O)cc1)NC(=O)[C@H](CC(=O)O)NC(=O)[C@H](CO)NC(=O)[C@@H](NC(=O)[C@H](Cc1ccccc1)NC(=O)[C@@H](NC(=O)CNC(=O)[C@H](CCC(=O)O)NC(=O)C(C)(C)NC(=O)[C@@H](N)Cc1ccc(O)cc1)[C@@H](C)O)[C@@H](C)O)C(=O)N[C@@H](Cc1ccc(O)cc1)C(=O)N[C@@H](CC(C)C)C(=O)N[C@@H](CC(=O)O)C(=O)N[C@@H](CCCCN)C(=O)N[C@@H](CCCCN)C(=O)N[C@@H](C)C(=O)N[C@@H](CCC(N)=O)C(=O)N[C@@H](CCCNC(=N)N)C(=O)N[C@@H](C)C(=O)N[C@@H](Cc1ccccc1)C(=O)N[C@H](C(=O)N[C@@H](CC(N)=O)C(=O)N[C@@H](Cc1c[nH]c2ccccc12)C(=O)N[C@@H](CC(C)C)C(=O)N[C@@H](CCCCN)C(=O)N[C@@H](C)C(=O)NC(C)(C)C(=O)N[C@@H](CCCCN)C(N)=O)C(C)C [Compound 23] (H-Y[Aib]EGTFTSDYSIYLDKKAQRAFVNWLKA[Aib]K-NH2),EC50,0.012 nM
CC[C@H](C)[C@H](NC(=O)[C@H](CO)NC(=O)[C@H](Cc1ccc(O)cc1)NC(=O)[C@H](CC(=O)O)NC(=O)[C@H](CO)NC(=O)[C@@H](NC(=O)[C@H](Cc1ccccc1)NC(=O)[C@@H](NC(=O)CNC(=O)[C@H](CCC(=O)O)NC(=O)C(C)(C)NC(=O)[C@@H](N)Cc1ccc(O)cc1)[C@@H](C)O)[C@@H](C)O)C(=O)N[C@@H](Cc1ccc(O)cc1)C(=O)N[C@@H](CC(C)C)C(=O)N[C@@H](CC(=O)O)C(=O)N[C@@H](CCCCN)C(=O)N[C@@H](CCCCN)C(=O)N[C@@H](C)C(=O)N[C@@H](CCC(N)=O)C(=O)N[C@@H](CCCNC(=N)N)C(=O)N[C@@H](C)C(=O)N[C@@H](Cc1ccccc1)C(=O)N[C@H](C(=O)N[C@@H](CC(N)=O)C(=O)N[C@@H](Cc1c[nH]c2ccccc12)C(=O)N[C@@H](CC(C)C)C(=O)N[C@@H](CC(C)C)C(=O)N[C@@H](C)C(=O)NC(C)(C)C(=O)N[C@@H](CCCCN)C(=O)N[C@@H](Cc1ccc(O)cc1)C(=O)NCC(=O)N[C@@H](Cc1cccc2ccccc12)C(=O)N[C@@H](CC(C)C)C(=O)N[C@@H](CC(=O)O)C(=O)N[C@@H](Cc1ccccc1)C(N)=O)C(C)C [Compound 25] (H-Y[Aib]EGTFTSDYSIYLDKKAQRAFVNWLLA[Aib]KYG[1Nal]LDF-NH2),EC50,0.041 nM
CCCCCCCCCCCCCCCC(=O)N[C@@H](CCC(=O)NCCCC[C@H](NC(=O)[C@H](CCC(=O)O)NC(=O)[C@H](CC(=O)O)NC(=O)[C@H](CC(C)C)NC(=O)[C@H](Cc1ccc(O)cc1)NC(=O)[C@@H](NC(=O)[C@H](CO)NC(=O)[C@H](Cc1ccc(O)cc1)NC(=O)[C@H](CC(=O)O)NC(=O)[C@H](CO)NC(=O)[C@@H](NC(=O)[C@H](Cc1ccccc1)NC(=O)[C@@H](NC(=O)CNC(=O)[C@H](CCC(=O)O)NC(=O)C(C)(C)NC(=O)[C@@H](N)Cc1ccc(O)cc1)[C@@H](C)O)[C@@H](C)O)[C@@H](C)CC)C(=O)N[C@@H](C)C(=O)N[C@@H](C)C(=O)N[C@@H](CCCCN)C(=O)N[C@@H](CCC(=O)O)C(=O)N[C@@H](Cc1ccccc1)C(=O)N[C@H](C(=O)N[C@@H](CCC(=O)O)C(=O)N[C@@H](Cc1c[nH]c2ccccc12)C(=O)N[C@@H](CC(C)C)C(=O)N[C@@H](CCC(=O)O)C(=O)N[C@@H](CO)C(=O)N[C@@H](C)C(N)=O)[C@@H](C)CC)C(=O)O [Compound 34] (H-Y[Aib]EGTFTSDYSIYLDEK([γGlu-Palmitoyl])AAKEFIEWLESA-NH2),EC50,0.031 nM
CCCCCCCCCCCCCCCC(=O)N[C@@H](CCC(=O)NCCCC[C@H](NC(=O)[C@H](CCCCN)NC(=O)[C@H](CC(=O)O)NC(=O)[C@H](CC(C)C)NC(=O)[C@H](Cc1ccc(O)cc1)NC(=O)[C@@H](NC(=O)[C@H](CO)NC(=O)[C@H](Cc1ccc(O)cc1)NC(=O)[C@H](CC(=O)O)NC(=O)[C@H](CO)NC(=O)[C@@H](NC(=O)[C@H](Cc1ccccc1)NC(=O)[C@@H](NC(=O)CNC(=O)[C@H](CCC(=O)O)NC(=O)C(C)(C)NC(=O)[C@@H](N)Cc1ccc(O)cc1)[C@@H](C)O)[C@@H](C)O)[C@@H](C)CC)C(=O)N[C@@H](C)C(=O)N[C@@H](CCC(N)=O)C(=O)N[C@@H](CCCNC(=N)N)C(=O)N[C@@H](C)C(=O)N[C@@H](Cc1ccccc1)C(=O)N[C@H](C(=O)N[C@@H](CC(N)=O)C(=O)N[C@@H](Cc1c[nH]c2ccccc12)C(=O)N[C@@H](CC(C)C)C(=O)N[C@@H](CC(C)C)C(=O)N[C@@H](C)C(=O)NC(C)(C)C(=O)N[C@@H](CCCCN)C(=O)N1CCC[C@H]1C(=O)N[C@@H](CO)C(=O)N[C@@H](CO)C(=O)NCC(=O)N[C@@H](C)C(=O)N1CCC[C@H]1C(=O)N1CCC[C@H]1C(=O)N1CCC[C@H]1C(=O)N[C@@H](CO)C(N)=O)C(C)C)C(=O)O [Compound 35],EC50,0.022 nM

# Reference: patent publication US10100097B2, “GIP-GLP-1 dual agonist compounds and methods” (Zealand Pharma A/S, priority 2012, dated 2018)
